target: T1, mouse GnRH receptor (Mus musculus, UniProt Q01776); test: Radioligand binding, 125I-GnRH-A, 293 cells expressing mouse GnRH receptors; settings: 10 uM; read-out: % Inhib. @ 10 uM mGnRH
T1 construct: expressed in transfected cells; host or cells: 293 cells
T1 sequence (Q01776 1-327): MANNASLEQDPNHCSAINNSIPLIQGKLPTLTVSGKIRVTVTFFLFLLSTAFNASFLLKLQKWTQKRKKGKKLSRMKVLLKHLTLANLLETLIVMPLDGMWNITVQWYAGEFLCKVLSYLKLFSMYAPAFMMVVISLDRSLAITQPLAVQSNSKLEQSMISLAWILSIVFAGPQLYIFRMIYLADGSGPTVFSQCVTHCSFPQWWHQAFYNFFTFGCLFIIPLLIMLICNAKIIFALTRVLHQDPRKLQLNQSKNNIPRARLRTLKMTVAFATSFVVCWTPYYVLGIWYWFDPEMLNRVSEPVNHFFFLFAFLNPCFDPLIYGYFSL
Procedure, shortened: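 Bound label captured on 0.1% polyethyleneimine-treated GF/C filters, washed three times with PBS, counted. IC50 derived; identical set-up for every species.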

Structure (SMILES) | inhibition at 10 µM [%]
Cc1cc2c(cc1Cc1ccc(C(=O)N3CCN(CCc4ccccc4)CC3)o1)C(C)(C)CCC2(C)C | 97
Cc1cc2c(cc1Cc1ccc(C(=O)N(C)CCC#N)o1)C(C)(C)CCC2(C)C [drawing 1531] | 83
CCc1ccc(CN(CCCO)C(=O)c2ccc(Cc3cc4c(cc3C)C(C)(C)CCC4(C)C)o2)cc1 | 88
Cc1ccc(C(C)NC(=O)c2ccc(Cc3cc4c(cc3C)C(C)(C)CCC4(C)C)o2)cc1 (centres unmarked) | 97
Cc1cc2c(cc1Cc1ccc(C(=O)N3CCN(CCN4CCOCC4)CC3)o1)C(C)(C)CCC2(C)C | 73
COc1cccc(CN(Cc2cccc(Oc3cccc(C(F)(F)F)c3)c2)C(=O)c2ccc(Cc3cc4c(cc3C)C(C)(C)CCC4(C)C)o2)c1OC [drawing 1307] | 75
C=CCN(CC=C)C(=O)c1ccc(Cc2cc3c(cc2C)C(C)(C)CCC3(C)C)o1 [drawing 1440] | 83
CCN(CC)CCNC(=O)c1ccc(Cc2cc3c(cc2C)C(C)(C)CCC3(C)C)o1 [drawing 1506] | 94
COc1ccccc1N1CCN(C(=O)c2ccc(Cc3cc4c(cc3C)C(C)(C)CCC4(C)C)o2)CC1 [drawing 1421] | 73
Cc1cc2c(cc1Cc1ccc(C(=O)N(CCC3CCCN3C)Cc3ccc4ccccc4c3)o1)C(C)(C)CCC2(C)C (centres unmarked) [drawing 1492] | 105
CNC(=O)c1ccc(Cc2cc3c(cc2C)C(C)(C)CCC3(C)C)o1 [drawing 1539] | 23
Cc1cc2c(cc1Cc1ccc(C(=O)N(CCC(c3ccccc3)c3ccccc3)Cc3ccco3)o1)C(C)(C)CCC2(C)C [drawing 1552] | 43
Cc1cc2c(cc1Cc1ccc(C(=O)N(CCN3CCCC3)Cc3cccc(Oc4cccc(C(F)(F)F)c4)c3)o1)C(C)(C)CCC2(C)C | 99
Cc1cc2c(cc1Cc1ccc(C(=O)N(CCC#N)Cc3ccco3)o1)C(C)(C)CCC2(C)C [drawing 1309] | 77
Cc1cc2c(cc1Cc1ccc(C(=O)N(CCC#N)Cc3cccnc3)o1)C(C)(C)CCC2(C)C [drawing 1473] | 91
Cc1cc2c(cc1Cc1ccc(C(=O)NCC3CC3)o1)C(C)(C)CCC2(C)C | 86
Cc1cc2c(cc1Cc1ccc(C(=O)NCC(O)CO)o1)C(C)(C)CCC2(C)C (centres unmarked) | 14
Cc1cc2c(cc1Cc1ccc(C(=O)NCCC3=CCCCC3)o1)C(C)(C)CCC2(C)C [drawing 1448] | 84
Cc1ccc(N2CCN(C(=O)c3ccc(Cc4cc5c(cc4C)C(C)(C)CCC5(C)C)o3)CC2C)cc1 (centres unmarked) [drawing 1276] | 73
CCOC(=O)N1CCN(C(=O)c2ccc(Cc3cc4c(cc3C)C(C)(C)CCC4(C)C)o2)CC1 [drawing 1530] | 65
Cc1cc2c(cc1Cc1ccc(C(=O)NC(C)(C)CNC(=O)C(F)(F)F)o1)C(C)(C)CCC2(C)C | 37
Cc1cc2c(cc1Cc1ccc(C(=O)N3CCC(C#N)(c4ccccc4)CC3)o1)C(C)(C)CCC2(C)C | 40
Cc1cc2c(cc1Cc1ccc(C(=O)NCC3CCCCC3)o1)C(C)(C)CCC2(C)C [drawing 1302] | 72
CCN1CC(N(CCC(C)c2ccccc2)C(=O)c2ccc(Cc3cc4c(cc3C)C(C)(C)CCC4(C)C)o2)CN1CC (centres unmarked) [drawing 1568] | 95

Structure (SMILES) | inhibition at 10 µM [%]
COCCCNC(=O)c1ccc(Cc2cc3c(cc2C)C(C)(C)CCC3(C)C)o1 [drawing 1268] | 101
Cc1cccc(N2CCN(C(=O)c3ccc(Cc4cc5c(cc4C)C(C)(C)CCC5(C)C)o3)CC2C)c1 (centres unmarked) [drawing 1520] | 73
CCC1CCCCN1C(=O)c1ccc(Cc2cc3c(cc2C)C(C)(C)CCC3(C)C)o1 (centres unmarked) | 100
CC(=O)N(C)C1CCN(C(=O)c2ccc(Cc3cc4c(cc3C)C(C)(C)CCC4(C)C)o2)C1 (centres unmarked) [drawing 1441] | 74
Cc1cc2c(cc1Cc1ccc(C(=O)N(C)C3CCCC3)o1)C(C)(C)CCC2(C)C | 100
COc1cc2c(cc1OC)C(c1ccccc1)N(C(=O)c1ccc(Cc3cc4c(cc3C)C(C)(C)CCC4(C)C)o1)CC2 (centres unmarked) | 29
Cc1cc2c(cc1Cc1ccc(C(=O)N(CCO)CCO)o1)C(C)(C)CCC2(C)C | 34
Cc1cc2c(cc1Cc1ccc(C(=O)N3CCc4[nH]c5c(F)cccc5c4C3)o1)C(C)(C)CCC2(C)C | 46
Cc1cc2c(cc1Cc1ccc(C(=O)N3CCN(CCOCCO)CC3)o1)C(C)(C)CCC2(C)C [drawing 1252] | 63
Cc1cc2c(cc1Cc1ccc(C(=O)N3CC(C)OC(C)C3)o1)C(C)(C)CCC2(C)C (centres unmarked) [drawing 1426] | 84
CCCN(CCC#N)C(=O)c1ccc(Cc2cc3c(cc2C)C(C)(C)CCC3(C)C)o1 | 94
CCN(Cc1ccccc1)C(=O)c1ccc(Cc2cc3c(cc2C)C(C)(C)CCC3(C)C)o1 | 86
Cc1cc2c(cc1Cc1ccc(C(=O)N(C)C3CCN(C)C3)o1)C(C)(C)CCC2(C)C (centres unmarked) | 89
Cc1cc2c(cc1Cc1ccc(C(=O)N(CCc3ccccn3)Cc3ccccc3)o1)C(C)(C)CCC2(C)C [drawing 1459] | 76
Cc1cc2c(cc1Cc1ccc(C(=O)N(CCC(c3ccccc3)c3ccccc3)Cc3ccccn3)o1)C(C)(C)CCC2(C)C [drawing 1554] | 50
Cc1cc2c(cc1Cc1ccc(C(=O)NC(C)(C)C(=O)OC(C)(C)C)o1)C(C)(C)CCC2(C)C | 75
Cc1cc2c(cc1Cc1ccc(C(=O)NCc3cccc(CNC(=O)C(Cc4ccccc4)c4ccccc4)c3)o1)C(C)(C)CCC2(C)C (centres unmarked) [drawing 1571] | 47
Cc1cc2c(cc1Cc1ccc(C(=O)N3CCC(O)(c4ccc(Cl)cc4)CC3)o1)C(C)(C)CCC2(C)C [drawing 1423] | 43
Cc1cc2c(cc1Cc1ccc(C(=O)NC(CO)(CO)CO)o1)C(C)(C)CCC2(C)C | 13
CCN(CC)CCCNC(=O)c1ccc(Cc2cc3c(cc2C)C(C)(C)CCC3(C)C)o1 [drawing 1244] | 100
Cc1cc2c(cc1Cc1ccc(C(=O)NCC[N+](C)(C)C)o1)C(C)(C)CCC2(C)C | 49
CCCCNC(=O)c1ccc(Cc2cc3c(cc2C)C(C)(C)CCC3(C)C)o1 | 90
Cc1cc2c(cc1Cc1ccc(C(=O)NC3CCCCC3C3CCCCC3)o1)C(C)(C)CCC2(C)C (centres unmarked) | 13

same assay, conditions: 1 h, substrate remaining; 10 uM compound; closer to zero = closer to 100% inhibition; read-out: S%R 10 uM mGnRHR

Structure (SMILES) | remaining activity at 10 µM [%]
CCCCN(C(=O)c1ccc(Cc2cc3c(cc2C)C(C)(C)CCC3(C)C)o1)C(C)c1ccccc1 (centres unmarked) [Compound 695] | 35
Cc1cc2c(cc1Cc1ccc(C(=O)N(CCC#N)Cc3cccnc3)o1)C(C)(C)CCC2(C)C [Compound 541] | 9
C=CCN(CC=C)C(=O)c1ccc(Cc2cc3c(cc2C)C(C)(C)CCC3(C)C)o1 [Compound 538] | 17
Cc1cc2c(cc1Cc1ccc(C(=O)NCC(C)(C)CN(C)C)o1)C(C)(C)CCC2(C)C [Compound 620] | 3
Cc1cc2c(cc1Cc1ccc(C(=O)N3CCC(CNC(=O)C(F)(F)F)CC3)o1)C(C)(C)CCC2(C)C [Compound 698] | 59
Cc1cc2c(cc1Cc1ccc(C(=O)N3CCC4(CC3)C(=O)NCN4c3ccccc3)o1)C(C)(C)CCC2(C)C [Compound 649] | 28
Cc1cc2c(cc1Cc1ccc(C(=O)NCCc3ccc([N+](=O)[O-])cc3)o1)C(C)(C)CCC2(C)C [Compound 482] | 34
Cc1cc2c(cc1Cc1ccc(C(=O)NCCc3c[nH]c4ccc(O)cc34)o1)C(C)(C)CCC2(C)C [Compound 678] | 17
Cc1cc2c(cc1Cc1ccc(C(=O)NCC3CCN(C(N)N)CC3)o1)C(C)(C)CCC2(C)C [Compound 522] | 9
Cc1cc2c(cc1Cc1ccc(C(=O)N3CCC(Cc4ccccc4)CC3)o1)C(C)(C)CCC2(C)C [Compound 585] | 52
COc1ccc(CCNC(=O)c2ccc(Cc3cc4c(cc3C)C(C)(C)CCC4(C)C)o2)cc1Br [Compound 643] | 23
Cc1cc2c(cc1Cc1ccc(C(=O)NCCc3c[nH]c4ccccc34)o1)C(C)(C)CCC2(C)C [Compound 470] | 6
Cc1cc2c(cc1Cc1ccc(C(=O)NCCc3cccc(C(F)(F)F)c3)o1)C(C)(C)CCC2(C)C [Compound 526] | 9
Cc1cc2c(cc1Cc1ccc(C(=O)N3CCC(O)(c4ccc(Br)cc4)CC3)o1)C(C)(C)CCC2(C)C [Compound 656] | 52
Cc1cc2c(cc1Cc1ccc(C(=O)NCCSCCO)o1)C(C)(C)CCC2(C)C [Compound 561] | 0
Cc1cc2c(cc1Cc1ccc(C(=O)N(Cc3ccc(C(C)C)cc3)Cc3cccnc3)o1)C(C)(C)CCC2(C)C [Compound 547] | 24
Cc1cc2c(cc1Cc1ccc(C(=O)N3CCN(c4cccc(NCC5CCCO5)n4)CC3)o1)C(C)(C)CCC2(C)C (centres unmarked) [Compound 480] | -2
Cc1cc2c(cc1Cc1ccc(C(=O)NCCCn3ccnc3)o1)C(C)(C)CCC2(C)C [Compound 468] | -10
Cc1ccc(N2CCN(C(=O)c3ccc(Cc4cc5c(cc4C)C(C)(C)CCC5(C)C)o3)CC2C)cc1 (centres unmarked) [Compound 702] | 28
Cc1cc2c(cc1Cc1ccc(C(=O)NCCNc3nccc(NCC4CCCO4)n3)o1)C(C)(C)CCC2(C)C (centres unmarked) [Compound 514] | 2

same assay, conditions: read-out: % Inhib. @ 10 uM mGnRH

Structure (SMILES) | inhibition at 10 µM [%]
Cc1cc2c(cc1Cc1ccc(C(=O)N3CCC(O)(O)CC3)o1)C(C)(C)CCC2(C)C | 22

From patent US7101878B1 (Agouron Pharmaceuticals, Inc., priority 1998, dated 2006)
